One data set deals with A549 cells. In words: CCK8 assay, A549 lung cancer cells. In kind it is cell-based. Conditions: Homo sapiens, 10 μM, 48 h, read-out: cell viability rate. As for the experimental part:
(§1) C42B, PC3, Caco-2, HepG2, MCF7, HL-60, 8505 C, OVCAR-3, and A549 were cultured to screen the broad-spectrum antiproliferative activity of compound 14. For above cell lines, three thousand cells per well were seeded in the 96-well plate and treated by compound 14 for 48 or 72 h at different concentrations (0, 5, 10, and 20 μM). In addition, HepG2, HEP3B, HUH6, and HUH7 were cultured to screen its antiproliferative activity against liver cancer cell lines. For these liver cancer cell lines, two thousand cells per well were seeded in the 96-well plate and treated by compound 14 for 48 h at different concentrations (0, 0.625, 1.25, 2.5, and 5 μM). Then, 10 μl of CCK8 was added into each well and cells were incubated in a humidified atmosphere of 5% CO2 at 37 °C for 4 h. The 96-well plate was measured with a microplate reader (Bio-Tek, San Diego, CA) at a wavelength of 450 nm to calculate IC50 values.
For orientation: Tetrazolium dyes change colour on reduction, which living cells bring about.

Data set [1] is described as follows: Toxicity in xenograft study: weight of mice, haematoxylin and eosin staining of organs. The data set is classed as in vivo. To be noted: 60 mg/kg by gavage every day for 21 days, vs control group.
Data set [2] concerns the target T1, LSD1 (Homo sapiens, UniProt O60341). The data set is described as follows: LSD1 screening assay kit (enzymatic activity). The data set is classed as biochemical. Details: purchased Cayman Chemical (Ann Arbor, MI). Conditions: fluorescence, read-out: IC50 against LSD1. As for the experimental part: After the incubation for 30 min at 37 °C, a mixture of horseradish peroxidase solution (20 μl) and fluorometric substrate solution (10 μl) was added to each well. Then, the 96-well plate was incubated for 15 min at 37 °C. Finally, the fluorescence of each well in the 96-well plate was measured at an emission wavelength of 590 nm and an excitation wavelength of 530 nm by a fluorimeter (Agilent Technologies Inc., Palo Alto, CA). Seclidemstat, a famous LSD1 inhibitor, was used as the control drug in this assay.

A further data set has as its system 8505 C cells. The data set is described as follows: CCK8 assay, 8505 C thyroid cancer cells. In kind it is cell-based. To be noted: Homo sapiens, 10 μM, 48 h, read-out: cell viability rate. As for the experimental part: as §1
A further data set concerns PC3 cells. In words: CCK8 assay, PC3 prostate cancer cells. In kind it is cell-based. Conditions: Homo sapiens, PC-3, 10 μM, 48 h, read-out: cell viability rate. As for the experimental part:
as §1

In another data set the test system is MCF7 cells. The data set is described as follows: CCK8 assay, MCF7 breast cancer cells. To be noted: Homo sapiens, 10 μM, 48 h, read-out: cell viability rate. The data set is classed as cell-based. As to the method:
as §1

For another data set, the system named is HUH6 cells. In words: CCK8 assay, HUH6 liver cancer cells. In kind it is cell-based. To be noted: Homo sapiens, HuH-6, CCK8, 48 h, 0-5 μM, read-out: IC50, antiproliferative activity. As to the method: as §1
The target in data set [3] is T1, LSD1. The data set is described as follows: Dialysis assay to evaluate the reversibility. To be noted: dialysis against HEPES buffer, GSK-LSD1 as irreversible reference. In kind it is biochemical. As to the method:
A mixture of compound 14 and the recombinant LSD1 was incubated for 60 min at 37 °C. Then, the system was dialysed against 50 mmol/l HEPES buffer at 37 °C for 12 h. Finally, the HEPES buffer was replaced and the system was incubated for 12 h at 37 °C. In the dialysis experiment, an irreversible inhibitor GSK-LSD1 was purchased as the reference drug (Innochem, Beijing, China).

The subject of data set [4] is HepG2 cells. In words: Wound healing and transwell assays. The data set is classed as cell-based, Human. Conditions: 48 h, compared to control group. As for the experimental part:
Cancer cells were seeded into a 6-well plate for 12 h and each well was scratched using a sterile micropipette tip. Cellular debris was removed by PBS solution (Servicebio, Wuhan, China), and compound 14 at different concentrations (0, 0.5 μM, 1 μM, and 2 μM) was added. The 6-well plate was incubated for 48 h and photographed on a microscope.
Cancer cells were seeded into a Transwell 24-well plate (Corning, NY) and compound 14 was added. About 20% foetal bovine serum and 1% heat-inactivated foetal bovine serum were respectively added into the lower and upper chamber. The 24-well plate was incubated for 48 h at 37 °C, and it was washed by water. Cancer cells were fixed with cold ethanol for 20 min and stained with haematoxylin solution (Servicebio, Wuhan, China).

In a further data set the test system is HEP3B cells. In words: CCK8 assay, HEP3B liver cancer cells. To be noted: Homo sapiens, CCK8, 48 h, 0-5 μM, read-out: IC50, antiproliferative activity. In kind it is cell-based. As to the method: as §1
A further data set deals with T2, MAO-A (Homo sapiens, UniProt P21397).
T2 construct: purchased Servicebio (Wuhan, China)
T2 sequence (P21397 whole entry, species assumed): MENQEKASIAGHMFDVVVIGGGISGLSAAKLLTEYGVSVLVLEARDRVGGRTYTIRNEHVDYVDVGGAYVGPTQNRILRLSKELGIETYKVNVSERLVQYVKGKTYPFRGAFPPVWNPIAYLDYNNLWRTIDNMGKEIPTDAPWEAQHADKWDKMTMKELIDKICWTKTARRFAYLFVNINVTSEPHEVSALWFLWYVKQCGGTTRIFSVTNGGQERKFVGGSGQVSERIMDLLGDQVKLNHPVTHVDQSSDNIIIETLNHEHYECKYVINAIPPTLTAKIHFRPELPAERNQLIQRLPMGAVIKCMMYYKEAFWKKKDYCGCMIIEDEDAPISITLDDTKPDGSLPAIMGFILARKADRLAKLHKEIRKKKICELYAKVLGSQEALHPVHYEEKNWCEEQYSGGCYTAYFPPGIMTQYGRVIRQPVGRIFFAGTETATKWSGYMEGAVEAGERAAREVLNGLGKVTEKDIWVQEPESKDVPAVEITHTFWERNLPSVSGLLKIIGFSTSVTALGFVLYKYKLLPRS
In words: Inhibitory activity against MAO-A (kynuramine). To be noted: tested at 250, 500, and 1000 nM. The data set is classed as biochemical. As for the experimental part:
In order to analyse the enzymatic selectivity of compound 14, MAO-A/B was purchased from Servicebio (Wuhan, China). MAO-A was dissolved in phosphate buffer (0.1 M, pH = 7.4) to get MAO-A enzymatic buffer with a concentration of 0.006 mg/ml. MAO-B was also dissolved in phosphate buffer (0.1 M, pH = 7.3) to get MAO-B enzymatic buffer with a concentration of 0.015 mg/mL. Kynuramine dihydrochloride (Servicebio, Wuhan, China) was used to get the assay buffer with a concentration of 40 μM for MAO-A and 20 μM for MAO-B. An aliquot of 97 μl of assay buffer and 3 μl of compound 14 at different concentrations (250, 500, and 1000 nM) were added into each well on the 96-well black plate. The plate was incubated at 37 °C for 20 min, and 80 μl of 2 N sodium hydroxide was added into each well to stop the reaction. The fluorescence of each well was measured using a microplate reader (Agilent Technologies Inc., CA) with an excitation at 310 nm and an emission at 380 nm.

The subject of data set [5] is HepG2 cells. In words: CCK8 assay, HepG2 liver cancer cells. To be noted: Homo sapiens. The data set is classed as cell-based. As for the experimental part: as §1
Another data set concerns H3K4me1/2. In words: Western blotting of LSD1 substrates H3K4me1/2. To be noted: Western blotting, 0, 0.5, 1, and 2 μM, 48 h. The data set is classed as cell-based. As for the experimental part:
Compound 14 at different concentrations (0, 0.5, 1, and 2 μM) was added into cancer cells solution and incubated for 48 h. Total protein was isolated from cells using RIPA buffer (Servicebio, Wuhan, China). An amount of […] of total protein were separated by sodium dodecyl sulphate polycrylamide gel electrophoresis and transferred to PVDF membranes. 5% non-fat milk (Servicebio, Wuhan, China) was used to block PVDF membranes and incubated with primary antibody for 12 h at 4 °C. Then, PVDF membranes were washed by TBST buffer (Servicebio, Wuhan, China) and incubated with secondary antibody at room temperature for 2 h. The enhanced chemiluminescence kit (Servicebio, Wuhan, China) was used to visualise immunoreactive bands. H3, GAPDH, Vimentin, N-cadherin, and E-cadherin as antibodies were purchased from Servicebio (Wuhan, China). Catalogue numbers of H3, GAPDH, Vimentin, N-cadherin, and E-cadherin as antibodies in Servicebio are GB11102, GB15004, GB11192, GB12135, and GB12868, respectively. H3K4me1 and H3K4me2 were obtained from Proteintech Group, Inc (Wuhan, China). Catalogue numbers of H3K4me1 and H3K4me2 as antibodies in Proteintech Group are 91289 and 39679, respectively.

As usually defined, the viability is a per cent measure of how many cells are alive, often set against a control. In general, IC50 refers to the concentration at which inhibition is half-maximal. On to `COc1ccc(CN(C(=O)CCN2C(=O)CCCC2=O)c2cc(OC)c(OC)c(OC)c2)cc1` [Compound 14, 3-(2,6-dioxopiperidin-1-yl)-N-(4-methoxybenzyl)-N-(3,4,5-trimethoxyphenyl)propanamide], for which the viability at 10 µM is 41.1% in the data set with A549 cells; 49.7% in the data set with 8505 C cells; 52% in the data set on PC3 cells; 49.7% in the data set on MCF7 cells; 14.2% in the data set on HepG2 cells [5] (10 μM, 48 h, read-out: cell viability rate). Besides, the “body weight of nude mice” value in data set [1] is given as “did not show significant changes in body weight”. In data set [1], the “haematoxylin and eosin staining of liver, spleen, lung, and kidney” value is “no morphological differences”. Further, the IC50 at LSD1 [2] is 0.18 µM; in the data set on HUH6 cells, 1.43 µM; with HEP3B cells, 2.09 µM; at MAO-A, greater than 1 µM; in the data set with HepG2 cells [5] (CCK8, 48 h, 0-5 μM, read-out: IC50, antiproliferative activity), 0.93 µM. Also, the “reversibility of LSD1 inhibition” value at LSD1 [3] is recorded as “inhibits LSD1 in a reversible manner”. The “migration of HepG2 cells” value in the data set on HepG2 cells [4] is recorded as “significantly suppresses the migration of HepG2 cells”. Also, in the data set on H3K4me1/2, the “methylation levels of H3K4me1 and H3K4me2” value was “increase the methylation levels of H3K4me1 and H3K4me2”.

Source of the values: article PMC11843658 (Journal of Enzyme Inhibition and Medicinal Chemistry, 2025).
